Experimental data as given in patent US20220241369A1, “COMPOSITIONS AND METHODS OF MODULATING INFLAMMATION” (La Jolla Institute for Allergy and Immunology, priority 2018, published 2022).

What was measured:
[1] = system: OVA-induced food allergy (allergic diarrhea); experiment: IgE-mediated experimental food allergy, i.g. pretreatment with HRF inhibitor before each OVA challenge; format: in vivo, mouse; settings: i.g. pretreatment; serum ELISA
Protocol: FIGS. 1A-1I show GST-N19 inhibits the development of diarrhea and intestinal mastocytosis in murine food allergy. Mice were i.p. sensitized with OVA ([…]) plus alum on days 0 and 14. From day 28, mice were i.g. challenged with OVA (50 mg) three times a week. Sensitized mice were either non-pretreated (−) or i.g. pretreated with 100 μg of GST or GST-N19 (N19). (FIG. 1A) Procedure scheme. (FIG. 1B) The development of diarrhea was monitored for 90 min after each OVA challenge. (n=5 for non-sensitized group, n=3 for inhibitor non-pretreated group, n=4 for GST group, n=6 for N19 group, data are representative of at least 3 independent experiments) Log-rank test: p=0.028 (GST vs. GST-N19), p=0.036 (control vs. GST-N19). […] (FIG. 1C-FIG. 1E) Total IgE, IgG1, HRF, and HRF-reactive IgE and IgG in sera were measured by ELISA. (FIG. 1F) Serum mMCP-1 was also measured by ELISA. (FIG. 1G) Sections of jejunum were stained with chloroacetate esterase to identify mast cells. Sections indicated by rectangles are enlarged in lower rows. Bar=100 μm in large pictures and 50 μm in insets. (FIG. 1H) Flow cytometry was performed to enumerate MMC9s (Lin^−c-Kit^+ST2^+IL-17RB^−Integrin β7^lo) in jejunum. (n=14 for non-sensitized group, n=15 for inhibitor non-pretreated group, n=9 for GST group, n=9 for GST-N19 group, pooled data of 3 independent experiments) (FIG. 1I) Cytokine mRNAs in jejunum were quantified by qRT-PCR. *, **: p<0.05, p<0.01 by ANOVA with Tukey's multiple comparison.
Mice were i.p. sensitized with OVA (50 μg/mouse) plus alum on days 0 and 14. From day 28, mice were i.g. challenged with OVA (25 or 50 mg) or PBS (control) three times a week. Before each challenge, mice were starved for 3 h, then i.g. pretreated with GST, GST-N19 (100 μg/mouse), synthetic N19 peptide, or HRF-2CA. The development of diarrhea was monitored for 90 min after OVA challenge. Diarrhea severity (30) was based on states of stool: solid (score 0), funicular (score 1), slurry (score 2), and watery (score 3).
For histologic analysis, jejunal tissue was fixed in 10% formalin. Mast cells in jejunal sections were detected by chloroacetate esterase staining. IgE, IgG, IgG1, IgG2a, mMCP-1, HRF, HRF-reactive IgE, and HRF-reactive IgG 24 h after the last OVA challenge were measured by ELISA (see Supplemental Information). Cytokine mRNAs in jejunum were quantified by qRT-PCR.
Twenty-four hours after the last OVA challenge, mice were sacrificed and small intestines (0.5-15 cm from stomach) were collected. The intestinal tissues were opened longitudinally and washed with HBSS. The washed tissues were incubated with 5 mM EDTA-HBSS for 30 min at 4° C., transferred to 30 ml HBSS in 50 ml tubes, and vigorously shaken to remove intestinal epithelial cells. The tissues were then washed with 10 ml of 10% FCS RPMI medium. Tissues were cut into tiny pieces and incubated with 2.4 mg/ml Collagenase D and 0.2 mg/ml DNase for 30 min at 37° C. Then cells were washed, resuspended in 44% Percoll solution, and slowly loaded on the top of 67% Percoll solution. The cells were centrifuged (1800 rpm, 20 min) and lymphocyte fractions were collected and used for detection of MMC9s (Lin^−c-Kit^+ST2^+IL-17RB^−Integrin β7^lo).
The cells were first incubated with 2.4G2 for 15 min at 4° C. and further incubated with Abs (PE-anti-07 integrin mAb (clone FIB504), PerCP/Cy5.5-anti-CD4 mAb (clone RM4-5), PerCP/Cy5.5-anti-CD8 mAb (clone 53-6.7), PerCP/Cy5.5-anti-CD11b mAb (clone M1/70), PerCP/Cy5.5-anti-CD11c mAb (clone N418), PerCP/Cy5.5-anti-B220 mAb (RA3-6B2), PerCP/Cy5.5-anti-Ly-6G/Ly-6C mAb (clone RB6-8C5), PerCP/Cy5.5-anti-CD335 mAb (clone 29A1.4), AlexaFluor647-anti-IL-17RB (clone 9B10), APC/Cy7-anti-CD117 (clone 2B8), Biotin-anti-ST2 (clone DIH9)) (Biolegend) for 30 min at 4° C. After washed, the cells were incubated with SA-BV421 (Biolegend) for 30 min at 4° C. MMC9 population was identified using FACS Canto. Data were analyzed using FlowJo software.

[2] = system: c-Kit+ mucosal mast cells of the small intestine; experiment: Ex vivo mast cell activation test (MCAT); format: cell-based, mouse; settings: cells from allergic mice, HRF-2CA 300 μg/ml
Protocol: FIGS. 2A-2C show mucosal mast cells can be activated ex vivo by antigen. Cells were released with EDTA from small intestines of non-sensitized/OVA challenged (Cont) or OVA-sensitized/OVA-challenged (OVA) mice, and mononuclear cells were selected. The cells were incubated for 15 min at 37° C. with OVA or anti-IgE antibody, and activation of Kit^+ mast cells was measured by flow cytometry (FIG. 2A, FIG. 2B). **, ***: p<0.01, p<0.001 by Student's t-test. (n=2; a representative of 2 independent experiments) (FIG. 2C) Mucosal cells derived from OVA-sensitized/OVA-challenged mice were stimulated with PBS (n=4), OVA (10 ng/ml, n=4) or HRF dimer (100 μg/ml, n=2) in the presence or absence of HRF-2CA (300 μg/ml).
FIGS. 11A-11C show HRF dimer, but not monomer can activate mast cells. (FIG. 11A) Purified dimeric and monomeric HRF expressed in E. coli. Recombinant HRF-[…] was purified first by Histrap HP and then Sephacryl S-200 HR16/60. Two peaks were observed by Sephacryl size fractionation. The first (Fr1) and second (Fr3) peaks contained dimer and monomer, respectively, as shown by SDS-PAGE. Fr1 and Fr3 were used for mast cell stimulation. (FIG. 11B) Cells were released with 10 mM EDTA from small intestines of OVA-sensitized/OVA-challenged mice, and mononuclear cells were selected. The cells were incubated for 15 min at 37° C. with mHRF monomer or dimer (100 μg/ml), or PBS, and Kit^+ mast cell activation (LAMP-1^+) was measured by flow cytometry (n=3). (FIG. 11C) Control experiments indicate an excellent specificity of the assay for HRF multimers. HRF-2CA (2CA) was used as a monomer control (n=2 for each concentration). Note that total concentrations of the 1:9 mixture of dimer:monomer gave almost the same luminescence values as did ten-fold less concentrations of dimer.
Twenty-four hours after the last OVA challenge, mice were sacrificed and small intestines (0.5-15 cm from stomach) were collected. The intestinal tissues were opened longitudinally and washed with PBS. Then, the tissues were incubated with 10 mM EDTA-PBS for 30 min at 37° C. After incubation, the tissues were transferred to 30 ml PBS in 50 ml tubes and vigorously shaken. After washed, the cells were resuspended in 40% Percoll solution and slowly loaded on the top of 75% Percoll solution. The cells were then centrifuged (2000 rpm, 20 min) and lymphocytes were collected. The cells were once centrifuged and resuspended in Tyrode's buffer. Abs (Biotin-anti-CD4 mAb (clone RM4-5), Biotin-anti-CD8 mAb (clone 53-6.7), Biotin-anti-B220 mAb (clone RA3-6B2), Biotin-anti-CD326 mAb (clone G8.8), PE-anti-CD117 (clone 2B8), AlexaFluor647-anti-LAMP-1 mAb (clone 1D4B)) (Biolegend) were added and cells were then stimulated with OVA, anti-IgE (clone RME-1, BioLegend) and recombinant dimeric murine HRF for 15 min at 37° C. After activation, cells were washed and incubated with FITC-streptavidin (Catalog #405202, Biolegend) for 30 min at 4° C. LAMP-1 expression was detected using FACS Calibur. Data were analyzed using FlowJo software.

[3] = system: BEAS-2B human bronchial epithelial cells; experiment: HRF secretion, western blot, BEAS-2B; format: cell-based; settings: cultured cells scraped and treated with adenosine and ATP
Excerpt: As lung epithelial cells are exposed to the environment, HRF secretion was studied using BEAS-2B human bronchial epithelial cells. A small amount of HRF was secreted constitutively, but house dust mite allergens induced the secretion of high-molecular-weight HRF species (HMW-HRFs). Various cytokines including epithelial derived cytokines as well as Th2 cytokines and proinflammatory cytokines further enhanced HDM-induced secretion of HMW-HRFs.
Cultured cells were scraped and treated with adenosine and ATP, which should be abundantly present in inflammatory or injured tissues. These conditions induced secretion of HRF monomer, dimer and HMW-HRFs like stimulation with HDM plus cytokines.
Culture supernatants were analyzed by SDS-PAGE under nonreducing (−DTT) and reducing (+DTT) conditions, followed by western blotting for HRF probing. HDM-induced HRF secretion was enhanced not only by Th2 cytokines (IL-4, IL-5, and IL-13), but also by epithelial derived cytokines (IL-25, IL-33, and TSLP) and proinflammatory cytokines (IL-1beta, IL-6 and TNF). med, medium alone; US, unstimulated; HDM, house dust mite; CR, cockroach; RW, ragweed; Af, Aspergillus fumigatus. Arrowhead, HRF monomer.

IgE+ mMCP-1+ mast cells = experiment: Localization of gavaged HRF inhibitors in jejunum by confocal microscopy; format: in vivo, mouse; settings: mice with allergic diarrhea, 1 h after i.g. gavage of 0.1 mg, anti-GST staining
Protocol: HRF multimers in the jejunum of non-sensitized/OVA challenged (Cont, n=6) or OVA-sensitized/OVA-challenged (OVA, n=5) mice were quantified by a newly developed ELISA (FIG. 3A, FIG. 3C). HRF was also measured by ELISA (FIG. 3B). HRF dimer and monomer were quantified by western blotting in control (Cont) and food allergic mice treated without (OVA) or with GST (GST) or GST-N19 (N19) (n=5 for each group) (FIG. 3D). Allergic diarrhea was induced by 6 challenges. On the day of 7th challenge, the mice were gavaged with 0.1 mg of GST or GST-N19 (FIG. 3E). One hour later, mice were sacrificed without OVA challenge. Jejunum tissues were stained for GST, IgE, and mMCP-1 before confocal microscopy (n=5 for GST and n=6 for GST-N19). Arrows indicate cells positive for GST or GST-N19 as well as IgE and mMCP-1. […] Bars=50 μm.
Jejunum biopsy was fixed in 4% paraformaldehyde at 4° C., washed in 10-20% sucrose in phosphate buffered saline, and embedded in O.C.T. compound (Sakura Finetek, Japan). Cyrosections were made in 6 μm and blocked with 2% skim milk. Immunostaining was performed with anti-HRF (rabbit polyclonal FL-172), anti-GST (rabbit polyclonal Z-5) (Santa Cruz Biotechnology), anti-IgE (clone RME-1 from Biolegend and clone R35-72 from BD Biosciences), anti-mMCP1 (Catalog #AF5146, R&D Systems), anti-CD45 (clone 30-F11), anti-CD63 (clone NVG-2) (Biolegend), and anti-Siglec F (clone E50-2440, BD Biosciences) as primary antibodies, and anti-Rabbit Alexa Fluor 647 (Catalog #A21245), anti-Rat Alexa Fluor 568 (Catalog #A11077), and anti-Sheep Alexa Fluor 555 (Catalog #A11015) (Thermo Fisher Scientific) as secondary antibodies. Coverslips were mounted with Prolong Gold with DAPI (Thermo Fisher Scientific) and fluorescence was observed under Leica TCS SP2 confocal microscopy (Leica) and Nuance Multi spectral Imaging System (PerkinElmer).
Applicant next tested whether HRF inhibitors target mucosal mast cells. To this end, mice with allergic diarrhea were i.g. gavaged with GST-N19 or GST, and their location was identified 1 h after their gavage.

synthetic N19 peptide: synthesized N19 peptide (N-terminal 19 amino acids of HRF); HRF inhibitor (MIIYRDLISHDEMFSDIYK)
levels of total IgE, IgG1, IgG2a or HRF-reactive IgE and IgG [1]: failed to affect | HRF-induced activation of mucosal mast cells ([2]; HRF dimer 100 μg/ml): significantly suppressed | OVA-induced activation of mucosal mast cells ([2]; OVA 10 ng/ml): significantly suppressed

Nc1ncnc2c1ncn2[C@@H]1O[C@H](COP(=O)(O)OP(=O)(O)OP(=O)(O)O)[C@@H](O)[C@H]1O [ATP]
secretion of HRF monomer, dimer and HMW-HRFs [3]: induced

GST: GST protein used as control for GST-N19 [reference compound]
IgE+ mMCP-1+ mast cells co-localized with the substance (IgE+ mMCP-1+ mast cells): 34%

Nc1ncnc2c1ncn2[C@@H]1O[C@H](CO)[C@@H](O)[C@H]1O [adenosine]
secretion of HRF monomer, dimer and HMW-HRFs [3]: induced
